The target of series [1] is T1, human Kv1.3 (Homo sapiens, UniProt P22001). In kind it is cell-based. More on the design: host or cells: HEK293.
In series [2] the test system is IFNγ production from human PBMCs. It counts as cell-based.
The subject of series [3] is T cell proliferation in human PBMCs. Briefly: T cell proliferation (3H-thymidine incorporation), anti-CD3/anti-CD28 stimulated PBMCs. In kind it is cell-based. The note with it: aCD3/aCD28 stimulated PBMCs from two normal donors. The text has this:
Inhibition of T cell proliferation following anti-CD3 and anti-CD28 antibody stimulation of PBMCs. PBMC's were previously isolated from normal human donor Leukophoresis packs, purified by density gradient centrifugation (Ficoll Hypaque), cryopreserved in CPZ Cryopreservation Medium Complete (INCELL, MCPZF-100 plus 10% DMSO final). PBMC's were thawed (95% viability), washed, and seeded at 2×10^5 cells per well in culture medium (RPMI medium 1640; GIBCO) supplemented with 10% fetal calf serum, 100 U/ml penicillin, […] streptomycin, 2 mM L-glutamine, 100 μM non-essential amino acids, and 20 μM 2-ME) in 96-well flat-bottom tissue culture plates. Cells were pre-incubated with either anti-human CD32 (FcyRII) blocking antibody (per manufacturers instructions EASY SEP Human Biotin Selection Kit #18553, StemCell Technologies Vancouver, BC) or Fc-L10-ShK (100 nM-0.001 nM final) for 45 min. Fc-L10-ShK (100 nM-0.001 nM final) was then added to the cells containing anti-human CD32 blocking antibody while medium was added to the cells containing Fc-L10-ShK. Both sets were incubated for an additional 45 min before stimulating for 48 hr with aCD3/aCD28 (0.2 ng/ml and 100 ng/ml, respectively). Final assay volume was 200 ul. […] Cells were then harvested onto glass fiber filters and radioactivity was measured in a B-scintillation counter.

In series [4] the test system is IL-2R on T cells in human whole blood. In kind it is cell-based.
For series [5], the system named is CD40L on T cells in human whole blood. It counts as cell-based.
Series [6] deals with IFNγ production from human PBMCs. In kind it is cell-based. This is another data set of the same source.
The target of series [7] is T1, human Kv1.3. In kind it is binding. More on the design: expressed in transfected cells.
Series [8] concerns the target T1, human Kv1.3. Briefly: Immunohistochemistry, binding to HEK 293 cells overexpressing human Kv1.3. More on the design: expressed in transfected cells. The note with it: 5 μg/ml, fixed cells, confocal microscopy. The procedure:
Immunohistochemistry analysis of Fc-L10-ShK[1-35] binding to HEK 293 cells overexpressing human Kv1.3. HEK 293 cells overexpressing human Kv1.3 (HEK Kv1.3) were obtained from BioFocus plc (Cambridge, UK) and maintained per manufacturer's recommendation. The parental HEK 293 cell line was used as a control. Cells were plated on Poly-D-Lysine 24 well plates (#35-4414; Becton-Dickinson, Bedford, Mass.) and allowed to grow to approximately 70% confluence. HEK KV1.3 were plated at 0.5×10e5 cells/well in 1 ml/well of medium. HEK 293 cells were plated at a density of 1.5×10e5 cells/well in 1 ml/well of medium. Before staining, cells were fixed with formalin (Sigma HT50-1-1 Formalin solution, diluted 1:1 with PBS/0.5% BSA before use) by removing cell growth medium, adding 0.2 ml/well formalin solution and incubating at room temperature for ten minutes. Cells were stained by incubating with 0.2 ml/well of 5 μg/ml Fc-L10-ShK[1-35] in PBS/BSA for 30′ at room temperature. Fc-L10-ShK[1-35] was aspirated and then the cells were washed one time with PBS/0.5% BSA. Detection antibody (Goat F(ab)2 anti-human IgG-phycoerythrin; Southern Biotech Associates, Birmingham, Ala.) was added to the wells at 5 μg/ml in PBS/0.5% BSA and incubated for 30′ at room temperature. Wash cells once with PBS/0.5% BSA and examine using confocal microscopy (LSM 510 Meta Confocal Microscope; Carl Zeiss AG, Germany). […]

Series [9] concerns AT-EAE model of multiple sclerosis. More on the design: species or system Lewis rats. The note with it: rat, in vivo, sc.
Series [10] relates to IL-2 production in human whole blood. It counts as cell-based.
Series [11] has as its system IFN-g production in human whole blood. It counts as cell-based.
For series [12] the following is noted: rat, in vivo, iv, 1 mg/kg.
Another series deals with T2, human Kv1.1 (Homo sapiens, UniProt Q09470).
T2 construct: expressed in transfected cells; host or cells: HEK293
In kind it is cell-based. The settings on record: read-out: Kv1.1 Analogue Activity (IC50).

Bridge positions count the residues as written; N and C are the ends. Square brackets hold non-standard residues; d marks the D form. Ends that are not written are not given here. Peptide text beside a SMILES is read from it. mPEG 20 kDa = 20 kDa monomethoxy-PEG attached via aldehyde at the N-terminus; 1Nal = N[C@@H](Cc1cccc2ccccc12)C(=O)O; hArg = N=C(N)NCCCC[C@H](N)C(=O)O

The results in this text go back to patent US7834164B2 (priority 2006, dated 2010).

T1 sequence (P22001 whole entry): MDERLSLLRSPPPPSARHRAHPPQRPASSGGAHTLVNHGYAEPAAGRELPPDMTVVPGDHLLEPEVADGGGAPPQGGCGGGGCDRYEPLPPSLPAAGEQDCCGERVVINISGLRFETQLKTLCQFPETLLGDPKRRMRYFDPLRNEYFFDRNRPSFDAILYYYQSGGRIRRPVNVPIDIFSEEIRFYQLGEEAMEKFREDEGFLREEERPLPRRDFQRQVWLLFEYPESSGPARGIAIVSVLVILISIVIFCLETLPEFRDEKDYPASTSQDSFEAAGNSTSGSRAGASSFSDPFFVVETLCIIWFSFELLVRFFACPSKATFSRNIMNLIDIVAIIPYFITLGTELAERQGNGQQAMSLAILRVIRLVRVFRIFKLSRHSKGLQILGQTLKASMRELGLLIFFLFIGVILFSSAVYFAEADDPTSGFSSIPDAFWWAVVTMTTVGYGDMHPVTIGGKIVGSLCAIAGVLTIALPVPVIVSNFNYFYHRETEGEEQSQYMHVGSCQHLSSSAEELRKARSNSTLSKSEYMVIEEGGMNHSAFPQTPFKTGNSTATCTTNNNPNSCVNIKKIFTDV
T2 sequence (Q09470 whole entry): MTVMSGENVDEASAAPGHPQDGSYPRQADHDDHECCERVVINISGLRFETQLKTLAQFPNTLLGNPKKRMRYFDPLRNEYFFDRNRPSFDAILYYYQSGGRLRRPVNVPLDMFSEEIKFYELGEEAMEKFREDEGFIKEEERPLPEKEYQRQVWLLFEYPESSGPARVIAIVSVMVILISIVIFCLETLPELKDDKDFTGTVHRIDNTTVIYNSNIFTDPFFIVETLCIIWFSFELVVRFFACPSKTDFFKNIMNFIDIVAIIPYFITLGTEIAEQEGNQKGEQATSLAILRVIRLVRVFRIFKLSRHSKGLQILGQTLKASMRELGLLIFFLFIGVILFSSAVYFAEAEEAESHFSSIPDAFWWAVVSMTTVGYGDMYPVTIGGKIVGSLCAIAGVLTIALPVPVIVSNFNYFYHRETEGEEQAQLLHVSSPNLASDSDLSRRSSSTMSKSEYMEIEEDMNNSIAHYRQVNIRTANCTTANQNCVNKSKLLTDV

Regarding “Fc-L10-OSK1[E16K,K20D]: Fc-L10 fusion of OSK1 with E16K and K20D substitutions (GVIINVKCKISRQCL[hArg]PCKDAGMRFGKCMNGKCACGGG; cysteine pairing not given here; also: Fc-L10 fusion)”, in the series with human Kv1.3 [1], the “fold difference in Kv1.3 potency compared to Fc-L10-OSK1” value is 1.3 fold and the hKv1.1/hKv1.3 is 403.

Regarding “Fc-L10-ShK[1-35]: Fc region of human IgG1 fused via L10 linker to Kv1.3 inhibitor peptide ShK[1-35]”, the “extent of inhibition of IFNγ production” value in [2] is “complete inhibition”. Besides, the “inhibition of T cell proliferation” value in series [3] is listed as “potently inhibits proliferation of T cells in a dose-dependent manner”. For the same compound, the “thapsigargin-induced upregulation of the IL-2R on T cells in human whole blood (in words)” value in [4] is “suppressed”. The “thapsigargin-induced upregulation of CD40L on T cells in human whole blood (in words)” value in [5] was “suppressed”. For the same compound, the “extent of inhibition of IFNg production” value in [6] was “nearly complete inhibition”. Moreover, in the series with human Kv1.3 [7], the “response in enzyme-immunoassay on fixed HEK 293 cells stably transfected with human Kv1.3” value was “dose-dependent increase in response”. Moreover, the “binding to Kv1.3 overexpressing versus untransfected HEK 293 cells” value with human Kv1.3 [8] was “binds to Kv1.3 overexpressing HEK 293 cells but shows little binding to untransfected cells”.

As for `CC[C@H](C)[C@@H]1NC(=O)[C@@H](NC(=O)[C@H](CO)NC(=O)[C@@H](N)CCCNC(=N)N)CSSC[C@@H](C(=O)O)NC(=O)[C@H]([C@@H](C)O)NC(=O)CNC(=O)[C@@H]2CSSC[C@@H]3NC(=O)[C@H](CCC(N)=O)NC(=O)[C@H](Cc4ccccc4)NC(=O)[C@H](C)NC(=O)[C@H]([C@@H](C)O)NC(=O)[C@H](CSSC[C@H](NC(=O)[C@H](Cc4ccccc4)NC(=O)[C@H](CO)NC(=O)[C@H](CC(C)C)NC(=O)[C@H](CCCNC(=N)N)NC(=O)[C@H](Cc4ccc(O)cc4)NC(=O)[C@H](CCCCN)NC(=O)[C@H](CCSC)NC(=O)[C@H](CO)NC(=O)[C@H](Cc4cnc[nH]4)NC(=O)[C@H](CCCCN)NC3=O)C(=O)N[C@@H](CCCNC(=N)N)C(=O)N[C@@H](CCCCN)C(=O)N[C@@H]([C@@H](C)O)C(=O)N2)NC(=O)[C@H](CCCNC(=N)N)NC(=O)[C@H](CO)NC(=O)[C@H](CCCCN)NC(=O)[C@@H]2CCCN2C(=O)[C@H]([C@@H](C)CC)NC(=O)[C@H]([C@@H](C)O)NC(=O)[C@H](CC(=O)O)NC1=O` [ShK], in series [9], the “average body weight lost” value worked out at 30 g; the “disease severity and survival (in words)” value is “developed severe disease and died”; the onset of disease was 4 days. The “extent of inhibition of IFNγ production” value in series [2] was “partial inhibition”. Further, in series [10], the “thapsigargin-induced IL-2 production in human whole blood (in words)” value (from here on “thapsigargin-induced IL-2 production”) is recorded as “suppressed”. Further, in series [4], the “thapsigargin-induced upregulation of the IL-2R on T cells in human whole blood (in words)” value is “suppressed”. The “thapsigargin-induced upregulation of CD40L on T cells in human whole blood (in words)” value in series [5] was “suppressed”. In series [6], the “extent of inhibition of IFNg production” value was “only partial inhibition”. Also, in series [11], the “thapsigargin-induced IFN-g production in human whole blood (in words)” value (“thapsigargin-induced IFN-g production” for short) is listed as “suppressed”. Also, the “time of significant suppression of Kv1.3 current (<70 POC) by 5% serum Test solutions” value in series [12] was no more than 1 h.

In the case of “Fc-L10-ShK[2-35]: human IgG1 Fc fused via 10 amino acid linker to ShK[2-35]”, the “thapsigargin-induced IL-2 production” value in series [10] is “suppressed”. The “thapsigargin-induced IFN-g production” value in series [11] is on record as “suppressed”.

In the case of “N-Terminally PEGylated-Des-Arg1-ShK: folded ShK[2-35] N-terminally mono-PEGylated with 20 kDa MeO-PEG-aldehyde by reductive amination ({mPEG 20 kDa}-SCIDTIPKSRCTAFQCKHSMKYRLSFCRKTCGTC; also: folded, disulfides present but pairing not given here)”, in the series with human Kv1.3 [1], the “block of human Kv1.3 current (in words)” value was “active in blocking human Kv1.3”.

As to “IbTx: BKCa channel inhibitor peptide, purchased from Bachem (QFTDVDCSVSKECWSVCKDLFGVDRGKCMGKKCRCYQ; Definition of Artificial Sequence: Synthetic peptide)”, the “thapsigargin-induced IL-2 production” value in series [10] is “no significant activity”. Further, the “thapsigargin-induced upregulation of the IL-2R on T cells in human whole blood (in words)” value in series [4] was “no significant activity”. Further, the “thapsigargin-induced upregulation of CD40L on T cells in human whole blood (in words)” value in series [5] is recorded as “no significant activity”. Moreover, the “thapsigargin-induced IFN-g production” value in [11] was “no significant activity”.

In the case of “Fc-L10-OSK1[K7S,E16K,K20D]: Fc-L10 fusion of OSK1 with K7S, E16K and K20D substitutions”, the hKv1.1/hKv1.3 with human Kv1.3 [1] was found to be 12.

“Fc-L10-OSK1[K7S]: Fc-L10 fusion of OSK1 with lysine to serine at position 7” showed a hKv1.1/hKv1.3 with human Kv1.3 [1] of 269.

In the case of `CC[C@H](C)[C@@H]1NC(=O)[C@H](Cc2cccc3ccccc23)NC(=O)[C@@H](NC(=O)[C@H](CCCCN)NC(=O)[C@@H](NC(=O)[C@H](CC(N)=O)NC(=O)[C@@H](NC(=O)[C@@H](NC(=O)[C@@H](NC(=O)CN)C(C)C)[C@@H](C)CC)[C@@H](C)CC)C(C)C)CSSC[C@@H]2NC(=O)[C@H](CCCCN)NC(=O)CNC(=O)[C@H](Cc3ccccc3)NC(=O)[C@H](CCCNC(=N)N)NC(=O)[C@H](CCSC)NC(=O)CNC(=O)[C@H](C)NC(=O)[C@H](CCCCN)NC(=O)[C@H](CCCCN)NC(=O)[C@@H]3CSSC[C@@H](C(=O)N[C@H](C(=O)N4CCC[C@H]4C(=O)N[C@@H](CCCCN)C(=O)O)[C@@H](C)O)NC(=O)[C@H](Cc4c[nH]cn4)NC(=O)[C@H](CSSC[C@H](NC(=O)[C@H](CCC(N)=O)NC(=O)[C@H](CCCNC(=N)N)NC(=O)[C@H](CO)NC1=O)C(=O)N[C@@H](CC(C)C)C(=O)N[C@@H](CCC(=O)O)C(=O)N1CCC[C@H]1C(=O)N3)NC(=O)[C@H](CCCCN)NC(=O)CNC(=O)[C@H](CC(N)=O)NC(=O)[C@H](CCSC)NC2=O` [K9Nal] (H-GVIINVKC[1Nal]ISRQCLEPCKKAGMRFGKCMNGKCHCTPK-OH; disulfide 8-28, 14-33, 18-35), the IC50 at human Kv1.1 was 0.292 nM.
